Data: ChEMBL document CHEMBL4346757, “Synthesis and biological evaluation of 7-methoxy-1-(3,4,5-trimethoxyphenyl)-4,5-dihydro-2H-benzo[e]indazoles as new colchicine site inhibitors” (Bioorg Med Chem Lett, 2019)
pIC50: −log10 of the molar value.

Tests used:
Tubulin = Tubulin (Bos taurus, UniProt Q6B856+Q862L2+Q862F3); assay: Inhibition of bovine brain tubulin polymerization measured every 1 min for 60 mins by turbidimetry based microplate reader analysis
COLO 205 = assay: Antiproliferative activity against human COLO205 cells assessed as reduction in cell viability by MTT assay; assay type: functional, cell-based
HCT-116 = assay: Antiproliferative activity against human HCT116 cells assessed as reduction in cell viability by MTT assay; assay type: functional, cell-based

SMILES: COc1ccc2c(c1)CCc1nn(-c3ccccc3)c(-c3cc(OC)c(OC)c(OC)c3)c1-2
- IC50 (Tubulin): > 10000 nM
- pIC50 (COLO 205): < 5.00
- pIC50 (HCT-116): 5.28

SMILES: COc1ccc2c(c1)CCc1nn(CCO)c(-c3cc(OC)c(OC)c(OC)c3)c1-2
- IC50 (Tubulin): > 10000 nM
- pIC50 (COLO 205): 6.25
- pIC50 (HCT-116): 5.92

SMILES: CCOC(=O)Cn1nc2c(c1-c1cc(OC)c(OC)c(OC)c1)-c1ccc(OC)cc1CC2
- IC50 (Tubulin): > 10000 nM
- pIC50 (COLO 205): 5.08
- pIC50 (HCT-116): < 5.00

SMILES: COc1ccc(-c2[nH]nc3c2-c2cc(OC)c(OC)c(OC)c2CC3)cc1
- pIC50 (Tubulin; read-out: IC50): 5.18
- pIC50 (COLO 205): 7.43

SMILES: COc1ccc(/C=C\c2cc(OC)c(OC)c(OC)c2)cc1O [COMBRETASTATIN A4]
- pIC50 (COLO 205): 9.00
- pIC50 (HCT-116): 9.00

SMILES: COc1ccc2c(c1)CCc1nn(C)c(-c3cc(OC)c(OC)c(OC)c3)c1-2
- IC50 (Tubulin): 1500 nM
- pIC50 (COLO 205): 7.72
- pIC50 (HCT-116): 9.00
